In patent US4396625A, “Treatment of glaucoma or ocular hypertension and ophthalmic composition” (Sumitomo Chemical Company, Limited, priority 1980, dated 1983):
Where a name gives a salt, the structure may show the parent alone.

Legend:
[1] = Stability / precipitation of ophthalmic solution on storage; type: physicochemical; settings: 40° C., 3 months
Method: To a part of distilled water required, was added 500 mg of compound (I) hydrochloride and the mixture was stirred at room temperature to dissolve the active ingredient. Next, D-mannitol 5 g, glycine 500 mg and Benzalkonium chloride 5 mg were added in this order and dissolved in the same way. After adjusting pH of the solution to 5.5 with hydrochloric acid, the mixture was added with distilled water to make the total volume to 100 ml. The solution was filtered under sterile conditions.
The following ophthalmic composition was prepared in the same way as stated in Example 4, using 100 mg of compound (I) acetate in place of 500 mg of compound (I) hydrochloride.
To a part of the required distilled water, was added 250 mg of compound (I) maleate, and the mixture was heated to 30° C. and stirred to dissolve the active ingredient. To this solution, 4 g of D-manitol, 1 g of glycine and 5 mg of Benzalkonium chloride were added and dissolved in this order. After adjusting pH of the solution to 6.0 with hydrochloric acid, the solution was added with distilled water to make the volume to 100 ml, and thus obtained solution was filtered under sterile conditions.

[2] = test system: intra-ocular pressure of the eye; test: Intra-ocular pressure measurement after local (ophthalmic) administration in dogs; type: in vivo, dog (Beagle); settings: dog, 0.5 w/v %, one drop
Method: In the local administration tests, compound (I) was applied to one eye of healthy grown-up dog (male or female; body weight 10 to 14 kg; Beagle dog) being normal in sense of sight and other sensitive faculties and having no morphological abnormality in the eyes, and evaluated for the effect thereof.
The test ophthalmic composition was prepared according to the recipe of Example 4, so as to include 0.5 w/v % of compound (I) HCl salt.
(§1) One drop (about 0.04 ml) of the ophthalmic composition was applied to a conjunctival sac of one eye and a drop of physiologic saline was into the conjunctival sac of the other eye. Thus applied eyes were kept closed for 5 to 10 seconds to ensure the osmosis of the medicament administered. Intra-ocular pressure in the respective eye was measured by using an Alcon Pneumatonography, just before the treatment with said medicine, and 1 to 24 hours after said administration. At each time, one drop of 0.4% oxydibucaine HCl ophthalmic composition (Trade Mark: Benoxyl® 0.4%; Santen Seiyaku K.K.) was applied to and intra-ocular pressure was measured after 20 to 30 seconds thereafter.

[3] = test system: intra-ocular pressure of the eye; test: Intra-ocular pressure measurement after ophthalmic administration in albino rabbits; type: in vivo; settings: rabbit
Method: as §1
Using the same procedure as stated in Example 1, compound (I) was evaluated with 12 albino rabbits (male; body weight 2 to 3 kg, native kind). As the test medicaments, aqueous 0.5 w/v % and 0.25 w/v % compound (I) HCl solutions prepared according to Example 4 were used, as well as physiologic saline control solution.

[4] = Mouse acute toxicity; type: in vivo; settings: in vivo
[5] = test system: mouse; test: Mouse acute toxicity; type: in vivo; settings: acute toxicity
[6] = Rat acute toxicity; type: in vivo; settings: in vivo
[7] = test system: rat; test: Rat acute toxicity; type: in vivo; settings: acute toxicity

## CC(C)(C)NCC(O)CSc1nc(-c2ccc(C(N)=O)s2)cs1 (centres unmarked) [compound (I) HCl]
[1]; 0.5 % (w/v), pH 5.5
  stability / precipitation of ophthalmic solution: very stable and no precipitation was observed
[2]; 1 hour later
  Intra-ocular pressure (mean ± standard error): 20.0 ± 0.9 mm Hg
[2]; 3 hours later
  Intra-ocular pressure (mean ± standard error): 16.6 ± 1.0 mm Hg
[2]; 5 hours later
  Intra-ocular pressure (mean ± standard error): 15.4 ± 0.9 mm Hg
[2]; 7 hours later
  Intra-ocular pressure (mean ± standard error): 16.0 ± 1.3 mm Hg
[2]; 9 hours later
  Intra-ocular pressure (mean ± standard error): 17.6 ± 1.2 mm Hg
[2]; 12 hours later
  Intra-ocular pressure (mean ± standard error): 20.4 ± 0.7 mm Hg
[2]; 24 hours later
  Intra-ocular pressure (mean ± standard error): 20.6 ± 0.8 mm Hg
[2]; before administration
  Intra-ocular pressure (mean ± standard error): 20.8 ± 0.9 mm Hg
[3]; 0.25 w/v %, 0.5 hour later
  Intra-ocular pressure (mean ± standard error): 20.7 ± 0.7 mm Hg
[3]; 0.25 w/v %, 1 hour later
  Intra-ocular pressure (mean ± standard error): 20.2 ± 0.6 mm Hg
[3]; 0.25 w/v %, 2 hours later
  Intra-ocular pressure (mean ± standard error): 19.8 ± 0.5 mm Hg
[3]; 0.25 w/v %, 3 hours later
  Intra-ocular pressure (mean ± standard error): 20.1 ± 0.6 mm Hg
[3]; 0.25 w/v %, 5 hours later
  Intra-ocular pressure (mean ± standard error): 22.1 ± 0.6 mm Hg
[3]; 0.25 w/v %, 7 hours later
  Intra-ocular pressure (mean ± standard error): 22.9 ± 0.8 mm Hg
[3]; 0.25 w/v %, 9 hours later
  Intra-ocular pressure (mean ± standard error): 21.0 ± 0.7 mm Hg
[3]; 0.25 w/v %, 24 hours later
  Intra-ocular pressure (mean ± standard error): 22.2 ± 0.6 mm Hg
[3]; 0.25 w/v %, before administration
  Intra-ocular pressure (mean ± standard error): 21.8 ± 0.5 mm Hg
[3]; 0.5 w/v %, 0.5 hour later
  Intra-ocular pressure (mean ± standard error): 21.1 ± 0.8 mm Hg
[3]; 0.5 w/v %, 1 hour later
  Intra-ocular pressure (mean ± standard error): 18.9 ± 0.9 mm Hg
[3]; 0.5 w/v %, 2 hours later
  Intra-ocular pressure (mean ± standard error): 18.5 ± 0.9 mm Hg
[3]; 0.5 w/v %, 3 hours later
  Intra-ocular pressure (mean ± standard error): 18.2 ± 0.8 mm Hg
[3]; 0.5 w/v %, 5 hours later
  Intra-ocular pressure (mean ± standard error): 21.6 ± 0.8 mm Hg
[3]; 0.5 w/v %, 7 hours later
  Intra-ocular pressure (mean ± standard error): 22.8 ± 0.8 mm Hg
[3]; 0.5 w/v %, 9 hours later
  Intra-ocular pressure (mean ± standard error): 22.2 ± 0.8 mm Hg
[3]; 0.5 w/v %, 24 hours later
  Intra-ocular pressure (mean ± standard error): 22.5 ± 0.8 mm Hg
[3]; 0.5 w/v %, before administration
  Intra-ocular pressure (mean ± standard error): 22.5 ± 0.6 mm Hg

## CC(C)(C)NCC(O)CSc1nc(-c2ccc(C(N)=O)s2)cs1 (centres unmarked) [compound (I) acetate]
[1]; 0.1 % (w/v)
  stability / precipitation of ophthalmic solution: very stable and no precipitation was observed

## CC(C)(C)NCC(O)CSc1nc(-c2ccc(C(N)=O)s2)cs1 (centres unmarked) [compound (I) maleate]
[1]; 0.25 % (w/v), pH 6.0
  stability / precipitation of ophthalmic solution: very stable and no precipitation was observed

## CC(C)(C)NCC(O)CSc1nc(-c2ccc(C(N)=O)s2)cs1 (centres unmarked) [compound (I), 2-(3-tert.-butylamino-2-hydroxypropylthio)-4-(5-carbamoyl-2-thienyl)-thiazole]
[4]; ip, intraperitoneal
  LD50: 500 mg/kg
[4]; oral
  LD50: > 5000 mg/kg
[5]
  toxic signs: no animals showed particular troublesome symptoms
[6]; ip, intraperitoneal
  LD50: 340 mg/kg
[6]; oral
  LD50: > 3000 mg/kg
[7]
  toxic signs: no animals showed particular troublesome symptoms
